This series concerns factor B mRNA transcript. The experiment in a line: Knockdown of factor B expression in HepG2 cells using siRNAs, dose response experiments (DRC). The series is classed as cell-based, human. The note with it: for Max Factor B inhibition (%): dose response up to 100 nM. The procedure:
HepG2 cells were obtained from ATCC (ATCC in partnership with LGC Standards, Wesel, Germany, cat. #ATCC-HB-8065) and cultured in MEM Eagle (#M2279, Sigma-Aldrich, Germany), supplemented to contain 10% fetal calf serum (#1248D, Biochrom GmbH, Berlin, Germany), 1×non-essential amino acids (#K0293; Biochrom, Berlin, Germany), 4 mM L-Glutamine (#K0283, Biochrom, Berlin, Germany) and 100 U/ml Penicillin/100 μg/ml Streptomycin (#A2213, Biochrom GmbH, Berlin, Germany) at 37° C. in an atmosphere with 5% CO2 in a humidified incubator.
24 siRNAs were designed and synthesized to target different regions of the factor B mRNA transcript. In this experiment, the sense strand of each siRNA contained 18 nucleotides identical to a target region sequence on the factor B transcript (SEQ ID NO: 75), and one additional adenine nucleotide at the 3′ end. Additionally, in this experiment, the antisense strand contained 18 nucleotides complementary to a target region sequence on the factor B transcript (SEQ ID NO: 75), and one additional uracil nucleotide at the 5′ end, and 2 additional uracil nucleotides at the 3′ end.
Transfection of siRNA was carried out with Lipofectamine RNAiMax (Invitrogen/Life Technologies, Karlsruhe, Germany) according to manufacturer's instructions for reverse transfection.
Each siRNA was tested using dose response experiments (DRC) in HepG2 cells. Dose-response experiments were done with siRNA in 10 concentrations transfected in quadruplicates, starting at 100 nM in 6-fold dilutions steps down to ˜10 fM. Mock transfected cells served as negative controls.
For each well, the target mRNA level was normalized to the respective GAPDH mRNA level. The activity of a given siRNA was expressed as percent mRNA concentration of the respective target (normalized to GAPDH mRNA) in treated cells, relative to the target mRNA concentration (normalized to GAPDH mRNA) averaged across mock transfected wells (DRCs).
Dose response experiments described above were repeated in a subset of siRNAs shown in Table 9, specifically siRNAs 2, 7, 8, and 3.

[1] abbreviates: reverse transfection, 10 concentrations from 100 nM in 6-fold dilutions, factor B mRNA normalized to GAPDH, relative to mock, Table 8.
Setting [2] is: additional (repeated) dose response experiments, Table 10.

In general, IC20 refers to the concentration at which the effect reaches the 20% level. A high value points to a need for much substance. Usually pIC50 stands for −log10 of the IC50, conventionally taken in molar units. Lower therefore signals a large IC50. One may read the IC80 as the concentration at which the effect reaches the 80% level. A higher IC80 goes with weaker potency.

pIC50: −log10 of the molar value. Oligonucleotides are written 5' to 3', each unit as a sugar letter and its base; * is a phosphorothioate linkage, no mark a phosphodiester; rarer units and linkages stand in square brackets, end groups in braces. Plain capitals give the bases only. m = 2'-O-methyl; f = 2'-fluoro

Regarding “1 (sense mC*mC*fUmAmCmUfAfCfAmAmUfGmUmGmAmGfUmGmA; antisense mU*fC*mAmCmUmCmAmCmAmUmUmGmUfAmGmUmAmGmG*mU*mU; siRNA) [compound 1]”, under “Table 8”, the “Max Factor B inhibition (%)” value was 91.04%. In addition, under setting [1], the IC20 is 0.03 nM, the negative-log IC50 (pIC50) is 9.27 and the IC80 was 19.8 nM.
As for “2 (sense mC*mU*fUmCmUmGfGfCfUmUmCfUmAmCmCmCfGmUmA; antisense mU*fA*mCmGmGmGmUmAmGmAmAmGmCfCmAmGmAmAmG*mU*mU; siRNA) [compound 2]”, under setting [2], the IC20 worked out at 0.021 nM, the pIC50 is 10.05, the IC80 was 0.865 nM and the “Max KD [%]” value was 83.5%. Further, the “Max Factor B inhibition (%)” value (Table 8) was 90.18%. The IC80 under setting [1] is 7.07 nM.
With “3 (sense mU*mU*fCmUmGmGfCfUfUmCmUfAmCmCmCmGfUmAmA; antisense mU*fU*mAmCmGmGmGmUmAmGmAmAmGfCmCmAmGmAmA*mU*mU; siRNA) [compound 3]”, under setting [2], the IC20 is 0.0722 nM, the pIC50 is 9.69, the IC80 turned out to be 0.886 nM and the “Max KD [%]” value was 87%. Where the note is “Table 8”, the “Max Factor B inhibition (%)” value was determined as 89.76%. Under setting [1], this substance had an IC20 of 0.02 nM, a pIC50 of 9.54 and an IC80 of 12 nM.
On to “4 (sense mC*mU*fGmCmUmAfUfGfAmCmGfGmUmUmAmCfAmCmA; antisense mU*fG*mUmGmUmAmAmCmCmGmUmCmAfUmAmGmCmAmG*mU*mU; siRNA) [compound 4]”, for which the “Max Factor B inhibition (%)” value (Table 8) amounted to 88.29%. Under setting [1], the IC20 stood at 0.05 nM, the pIC50 is 9.32 and it took 10.9 nM to reach the 80% level (IC80).
Turning to “5 (sense mG*mG*fGmGmAmGfUfAfGmUmGfGmAmUmGmUfCmUmA; antisense mU*fA*mGmAmCmAmUmCmCmAmCmUmAfCmUmCmCmCmC*mU*mU; siRNA) [compound 5]”, the “Max Factor B inhibition (%)” value (Table 8) was determined as 86.90%. Also, under setting [1], it took 0.1 nM to reach the 20% level (IC20), the pIC50 was 9.17 and the IC80 came out at 9.65 nM.
Regarding “6 (sense mU*mG*fUmGmGmUfGfUfCmUmGfAmGmUmAmCfUmUmA; antisense mU*fA*mAmGmUmAmCmUmCmAmGmAmCfAmCmCmAmCmA*mU*mU; siRNA) [compound 6]”, the “Max Factor B inhibition (%)” value (Table 8) came out at 85.34%. Also, under setting [1], it took 0.03 nM to reach the 20% level (IC20), the pIC50 is 9.43 and the IC80 amounted to 16.1 nM.
On to “7 (sense mU*mA*fCmGmUmGfUfGfUmCmCfUmUmCmUmGfGmCmA; antisense mU*fG*mCmCmAmGmAmAmGmGmAmCmAfCmAmCmGmUmA*mU*mU; siRNA) [compound 7]”, for which, under setting [2], the IC20 is 0.026 nM, the pIC50 is 9.99, the IC80 came to 0.868 nM and the “Max KD [%]” value turned out to be 83.5%. Moreover, the “Max Factor B inhibition (%)” value (Table 8) was 82.44%. Further, under setting [1], the pIC50 is 10.70 and it took 670 nM to reach the 80% level (IC80).
On to “8 (sense mA*mA*fGmUmGmUfCfUfAmGmUfCmAmAmCmUfUmAmA; antisense mU*fU*mAmAmGmUmUmGmAmCmUmAmGfAmCmAmCmUmU*mU*mU; siRNA) [compound 8]”, for which, under setting [2], the concentration for an effect of 20% (IC20) was 0.0889 nM, the pIC50 was 9.57 and the “Max KD [%]” value came out at 76.2%. Moreover, where the note is “Table 8”, the “Max Factor B inhibition (%)” value was 82.24%. Under setting [1], the pIC50 was 9.80 and it took 717 nM to reach the 80% level (IC80).
Consider “9 (sense mC*mU*fAmUmGmAfCfGfUmUmGfCmCmCmUmGfAmUmA; antisense mU*fA*mUmCmAmGmGmGmCmAmAmCmGfUmCmAmUmAmG*mU*mU; siRNA) [compound 9]”, for which the “Max Factor B inhibition (%)” value (Table 8) is on record as 82.07%. Under setting [1], the 20% effect level (IC20) was put at 0.01 nM, the negative-log IC50 (pIC50) was 9.57 and the IC80 turned out to be 142 nM.
The like results for “10 (sense mC*mU*fCmGmGmUfUfCfCmUmUfUmGmUmAmCfUmGmA; antisense mU*fC*mAmGmUmAmCmAmAmAmGmGmAfAmCmCmGmAmG*mU*mU; siRNA) [compound 10]” were, in that order, 81.72%, 0.43 nM, 8.77 and 31.6 nM.
As to “11 (sense mA*mC*fCmAmUmAfGfAfAmGmGfAmGmUmCmGfAmUmA; antisense mU*fA*mUmCmGmAmCmUmCmCmUmUmCfUmAmUmGmGmU*mU*mU; siRNA) [compound 11]”, the “Max Factor B inhibition (%)” value (Table 8) was 81.08%. Under setting [1], this substance showed an IC20 of 0.01 nM, a negative-log IC50 (pIC50) of 9.59 and an IC80 of 2350 nM.
“12 (sense mG*mG*fAmUmUmAfUfCfUmGmGfAmUmGmUmCfUmAmA; antisense mU*fU*mAmGmAmCmAmUmCmCmAmGmAfUmAmAmUmCmC*mU*mU; siRNA) [compound 12]”: the “Max Factor B inhibition (%)” value (Table 8) is 80.54%. Further, under setting [1], it took 0.13 nM to reach the 20% level (IC20), the pIC50 was 9.05 and it took 183 nM to reach the 80% level (IC80).
With “13 (sense mA*mC*fGmUmUmGfCfCfCmUmGfAmUmCmAmAfGmCmA; antisense mU*fG*mCmUmUmGmAmUmCmAmGmGmGfCmAmAmCmGmU*mU*mU; siRNA) [compound 13]”, for the setting “Table 8”, the “Max Factor B inhibition (%)” value is 80.41%. Under setting [1], this substance had an IC20 of 0.06 nM, a pIC50 of 9.16 and an IC80 of 1340 nM.
For the substance “14 (sense mG*mG*fAmGmCmCfAfAfAmAmAfGmUmGmUmCfUmAmA; antisense mU*fU*mAmGmAmCmAmCmUmUmUmUmUfGmGmCmUmCmC*mU*mU; siRNA) [compound 14]”, for the setting “Table 8”, the “Max Factor B inhibition (%)” value was found to be 79.20%. In addition, under setting [1], the IC20 stood at 0.22 nM and the pIC50 is 8.89.
“15 (sense mC*mC*fGmAmUmUfAfCfCmAmCfAmAmGmCmAfAmCmA; antisense mU*fG*mUmUmGmCmUmUmGmUmGmGmUfAmAmUmCmGmG*mU*mU; siRNA) [compound 15]”: the “Max Factor B inhibition (%)” value (Table 8) stood at 78.63%. Under setting [1], this substance gave an IC20 of 1.7 nM and a negative-log IC50 (pIC50) of 8.20.
Take “16 (sense mA*mA*fUmGmCmAfGfAfCmUmGfGmGmUmCmAfCmGmA; antisense mU*fC*mGmUmGmAmCmCmCmAmGmUmCfUmGmCmAmUmU*mU*mU; siRNA) [compound 16]”: the “Max Factor B inhibition (%)” value (Table 8) was 77.05%. Under setting [1], this substance gave an IC20 of 0.01 nM and a pIC50 of 9.52.
As to “17 (sense mC*mU*fCmAmCmGfCfCfCmGmAfGmAmCmUmUfUmCmA; antisense mU*fG*mAmAmAmGmUmCmUmCmGmGmGfCmGmUmGmAmG*mU*mU; siRNA) [compound 17]”, under “Table 8”, the “Max Factor B inhibition (%)” value worked out at 75.50%. Further, under setting [1], the 20% effect level (IC20) was put at 0.07 nM and the pIC50 was 9.07.
In the case of “18 (sense mC*mA*fGmCmGmAfUfCfUmGmUfGmAmCmAmAfCmGmA; antisense mU*fC*mGmUmUmGmUmCmAmCmAmGmAfUmCmGmCmUmG*mU*mU; siRNA) [compound 18]”, the “Max Factor B inhibition (%)” value (Table 8) is on record as 75.45%. Further, under setting [1], the 20% effect level (IC20) was put at 0.3 nM and the pIC50 was 8.69.
With “19 (sense mC*mU*fAmCmCmAfCfUfUmGmCfCmAmGmCmAfAmCmA; antisense mU*fG*mUmUmGmCmUmGmGmCmAmAmGfUmGmGmUmAmG*mU*mU; siRNA) [compound 19]”, under “Table 8”, the “Max Factor B inhibition (%)” value was found to be 74.03%. Under setting [1], this substance had an IC20 of 0.16 nM and a pIC50 of 8.95.
As for “20 (sense mU*mU*fUmAmUmGfAfCfUmAmUfGmAmCmGmUfUmGmA; antisense mU*fC*mAmAmCmGmUmCmAmUmAmGmUfCmAmUmAmAmA*mU*mU; siRNA) [compound 20]”, the “Max Factor B inhibition (%)” value (Table 8) stood at 74.02%. Under setting [1], this substance gave an IC20 of 1.1 nM and a pIC50 of 8.45.
“21 (sense mC*mC*fUmUmGmAfUfAfGmUmUfCmAmCmAmAfGmAmA; antisense mU*fU*mCmUmUmGmUmGmAmAmCmUmAfUmCmAmAmGmG*mU*mU; siRNA) [compound 21]”: under “Table 8”, the “Max Factor B inhibition (%)” value is reported as 72.43%. Under setting [1], this substance showed an IC20 of 0.12 nM and a pIC50 of 8.79.
Take “22 (sense mC*mU*fCmAmAmGfAfGfGmUmGfGmCmCmGmAfAmGmA; antisense mU*fC*mUmUmCmGmGmCmCmAmCmCmUfCmUmUmGmAmG*mU*mU; siRNA) [compound 22]”: where the note is “Table 8”, the “Max Factor B inhibition (%)” value is given as 72.01%. Also, under setting [1], it took 0.32 nM to reach the 20% level (IC20) and the pIC50 is 8.68.
On the same counts, the results for “23 (sense mU*mU*fUmUmAmUfGfAfCmUmAfUmGmAmCmGfUmUmA; antisense mU*fA*mAmCmGmUmCmAmUmAmGmUmCfAmUmAmAmAmA*mU*mU; siRNA) [compound 23]” are 68.74%, 0.22 nM and 8.61.
The like results for “24 (sense mU*mU*fCmCmGmAfCfUfUmCmUfCmCmAmAmGfAmGmA; antisense mU*fC*mUmCmUmUmGmGmAmGmAmAmGfUmCmGmGmAmA*mU*mU; siRNA) [compound 24]” were, in that order, 61.56%, 0.51 nM and 8.56.
